From ChEMBL document CHEMBL1201862, “PubChem BioAssay data set” (2004)
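Cells were grown in 96-well plates and exposed to each compound for 48 hours at five concentrations; endpoints were interpolated linearly between bracketing concentrations, or set to the highest concentration if not reached. Here, GI50 denotes the concentration required for 50% inhibition of growth.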 The source made the active and inactive calls. Cut-off read from the data, not from the text of the source: active = GI50 up to about 1.1 µM and inactive = higher.

Experiments:
Assay in all cases: NCI anticancer screen, dose series, 48 h
A549 = tested on: A549
COLO 205 = tested on: COLO 205
DU-145 = tested on: DU-145
Hs-578T = tested on: Hs-578T
LOX IMVI = tested on: LOX IMVI
MCF7 = tested on: MCF7
MDA-MB-231 = tested on: MDA-MB-231
MOLT-4 = tested on: MOLT-4
Malme-3M = tested on: Malme-3M
NCI-H522 = tested on: NCI-H522
PC-3 = tested on: PC-3
RPMI-8226 = tested on: RPMI-8226
RXF 393 = tested on: RXF 393
SF-539 = tested on: SF-539
SK-MEL-5 = tested on: SK-MEL-5
SN12C = tested on: SN12C
TK-10 = tested on: TK-10
OVCAR-4 = tested on: OVCAR-4
UACC-62 = tested on: UACC-62

Measured: GI50

COc1cc(OC)c(OC)cc1/C=C1\C=Cc2ccccc21
inactive: A549 26.5 µM | COLO 205 7.96 µM | DU-145 28.8 µM | Hs-578T 22.9 µM | LOX IMVI 13 µM | MCF7 12.1 µM | MDA-MB-231 12.6 µM | MOLT-4 6.31 µM | Malme-3M 23.1 µM | NCI-H522 12.1 µM | PC-3 5.52 µM | RPMI-8226 10.8 µM | RXF 393 11.4 µM | SF-539 15.2 µM | SK-MEL-5 11.1 µM | SN12C 18.8 µM | TK-10 17.3 µM

COC(=O)Cc1c([C@@H]2Nc3ccccc3[C@H]2CC(=O)OC)[nH]c2ccccc12
inactive: A549 31.7 µM | COLO 205 16 µM | DU-145 59.4 µM | Hs-578T 41.3 µM | LOX IMVI 21.6 µM | MCF7 25.4 µM | MDA-MB-231 18.5 µM | MOLT-4 10.9 µM | OVCAR-4 23 µM | PC-3 11.1 µM | RPMI-8226 14.9 µM | RXF 393 25.7 µM | SF-539 20.5 µM | SK-MEL-5 7.98 µM | SN12C 30.3 µM | TK-10 44.2 µM | UACC-62 13.9 µM

NC(=O)NNCc1ccccc1
inactive: A549 > 100 µM | COLO 205 > 100 µM | DU-145 > 100 µM | Hs-578T > 100 µM | LOX IMVI > 100 µM | MCF7 > 100 µM | MDA-MB-231 > 100 µM | MOLT-4 > 100 µM | NCI-H522 > 100 µM | OVCAR-4 > 100 µM | PC-3 > 100 µM | RPMI-8226 > 100 µM | RXF 393 > 100 µM | SF-539 > 100 µM | SK-MEL-5 > 100 µM | SN12C > 100 µM | TK-10 > 100 µM | UACC-62 > 100 µM

CCc1n[nH]c(=O)n1-n1c(C)ccc1C
inactive: A549 > 100 µM | COLO 205 > 100 µM | DU-145 > 100 µM | Hs-578T > 100 µM | LOX IMVI > 100 µM | MCF7 > 100 µM | MDA-MB-231 > 100 µM | MOLT-4 > 100 µM | Malme-3M > 100 µM | NCI-H522 > 100 µM | OVCAR-4 > 100 µM | PC-3 > 100 µM | RPMI-8226 > 100 µM | RXF 393 > 100 µM | SK-MEL-5 > 100 µM | SN12C > 100 µM | TK-10 > 100 µM | UACC-62 > 100 µM

O=c1c2ccccc2[nH]n1Cc1ccccc1
inactive: A549 > 100 µM | COLO 205 > 100 µM | DU-145 > 100 µM | Hs-578T > 100 µM | LOX IMVI > 100 µM | MCF7 > 100 µM | MDA-MB-231 > 100 µM | MOLT-4 > 100 µM | NCI-H522 > 100 µM | OVCAR-4 > 100 µM | PC-3 > 100 µM | RPMI-8226 > 100 µM | RXF 393 > 100 µM | SF-539 > 100 µM | SK-MEL-5 > 100 µM | SN12C > 100 µM | TK-10 > 100 µM | UACC-62 > 100 µM

O=C(OCc1ccccc1)N1CCNCCNCC1
inactive: A549 > 100 µM | COLO 205 > 100 µM | DU-145 > 100 µM | Hs-578T > 100 µM | LOX IMVI > 100 µM | MCF7 > 100 µM | MDA-MB-231 > 100 µM | MOLT-4 > 100 µM | NCI-H522 > 100 µM | OVCAR-4 > 100 µM | PC-3 > 100 µM | RPMI-8226 > 100 µM | RXF 393 > 100 µM | SF-539 > 100 µM | SK-MEL-5 > 100 µM | SN12C > 100 µM | TK-10 > 100 µM | UACC-62 > 100 µM

NC1C2C(CC(=O)O)OCC=C3CN4CCC1(C(=O)C(=O)O)C4CC32 (stereo not drawn)
inactive: A549 > 100 µM | COLO 205 > 100 µM | DU-145 > 100 µM | Hs-578T > 100 µM | LOX IMVI > 100 µM | MCF7 > 100 µM | MDA-MB-231 > 100 µM | MOLT-4 > 100 µM | Malme-3M > 100 µM | NCI-H522 > 100 µM | OVCAR-4 > 100 µM | PC-3 > 100 µM | RXF 393 > 100 µM | SF-539 > 100 µM | SK-MEL-5 > 100 µM | SN12C > 100 µM | TK-10 > 100 µM | UACC-62 > 100 µM

CCCCCCCCCC(O)CC(=O)c1c(O)cccc1O (stereo not drawn)
inactive: A549 23.6 µM | COLO 205 30.1 µM | DU-145 38 µM | Hs-578T 18.6 µM | LOX IMVI 20.4 µM | MCF7 26.8 µM | MDA-MB-231 21.4 µM | MOLT-4 19.5 µM | Malme-3M 16 µM | NCI-H522 19 µM | OVCAR-4 16.7 µM | PC-3 18.7 µM | RPMI-8226 20.6 µM | RXF 393 16.9 µM | SF-539 20.3 µM | SK-MEL-5 19 µM | SN12C 31.3 µM | TK-10 21.8 µM

NC1CCCCC1.O=P(O)(O)C(O)/C=C/c1ccccc1 (stereo not drawn)
inactive: A549 > 100 µM | COLO 205 > 100 µM | DU-145 > 100 µM | Hs-578T > 100 µM | LOX IMVI > 100 µM | MCF7 > 100 µM | MDA-MB-231 > 100 µM | MOLT-4 > 100 µM | Malme-3M > 100 µM | NCI-H522 > 100 µM | OVCAR-4 > 100 µM | PC-3 > 100 µM | RPMI-8226 > 100 µM | RXF 393 > 100 µM | SK-MEL-5 > 100 µM | SN12C > 100 µM | TK-10 > 100 µM | UACC-62 > 100 µM

c1ccc(/N=C2\c3ccccc3CN2c2ccccn2)nc1
inactive: A549 > 100 µM | COLO 205 58.6 µM | DU-145 > 100 µM | Hs-578T > 100 µM | LOX IMVI 96.2 µM | MCF7 49.9 µM | MDA-MB-231 > 100 µM | MOLT-4 54.6 µM | NCI-H522 61.7 µM | OVCAR-4 > 100 µM | PC-3 70.1 µM | RPMI-8226 78 µM | RXF 393 > 100 µM | SF-539 > 100 µM | SK-MEL-5 > 100 µM | SN12C > 100 µM | TK-10 > 100 µM | UACC-62 > 100 µM

OC(c1ccc(C(F)(F)F)cc1)C(F)(F)c1nc2ccccc2o1 (stereo not drawn)
inactive: COLO 205 > 100 µM | DU-145 > 100 µM | Hs-578T > 100 µM | LOX IMVI > 100 µM | MCF7 > 100 µM | MDA-MB-231 > 100 µM | MOLT-4 > 100 µM | OVCAR-4 > 100 µM | PC-3 > 100 µM | RPMI-8226 > 100 µM | RXF 393 > 100 µM | SF-539 > 100 µM | SK-MEL-5 > 100 µM | TK-10 > 100 µM | UACC-62 > 100 µM
